Assay: in vitro
Procedure: Samples were placed separately in hermetically sealed screw-tubes (to avoid evaporation) and then in an orbital incubator (Stuart S1500, UK) set at 50 rpm and 37 °C, for a period of up to 30 d. […] For quantification of free or liposomal peptides in the presence of 80% FBS, serum proteins precipitation was accomplished by mixing one volume of sample (100 μL) with three volumes (300 μL) of acidified isopropanol (with 0.1% TFA), followed by vortex agitation and centrifugation at 15000 rpm for 15 min. Next, the supernatant was transferred to a new eppendorf tube and 400 μL of HEPES (pH 5.0) were added, followed by vigorous vortex for 1 min, in order to retrieve the peptide. Finally, the samples were analyzed by HPLC, based on a calibration curve constructed at the exact same conditions as the samples to be analyzed.
For direct comparison of the stability of the different peptides, the results were normalized and expressed as the percentage of the corresponding initial peptide concentration measured at time point 0, for each peptide and each formulation (solution or liposome). Experiments were carried out in triplicate, and the results are expressed as the mean value ± standard deviation.

With `CC[C@H](C)[C@@H]1NC(=O)[C@H](C)NC(=O)[C@H]([C@@H](C)CC)NC(=O)[C@H](CCC(N)=O)NC(=O)[C@H](C)NC(=O)[C@H](CCCNC(=N)N)NC(=O)[C@H](C(C)C)NC(=O)[C@H](CC(C)C)NC(=O)[C@H](CCC(=O)O)NC(=O)[C@H](CCCNC(=N)N)NC(=O)CNC(=O)[C@@H](NC(=O)[C@H](CC(C)C)NC(=O)[C@H](CCCCN)NC(=O)[C@@H](NC(=O)[C@@H](NC(=O)[C@H](CCC(=O)O)NC(=O)[C@H](CCC(=O)O)NC(=O)[C@H](CCSC)NC(=O)[C@H](Cc2c[nH]c3ccccc23)NC(=O)[C@H](CO)NC(=O)[C@@H](N)CC(=O)O)C(C)C)[C@@H](C)CC)CSSC[C@@H]2NC(=O)[C@@H](NC(=O)[C@H](CCCCN)NC(=O)[C@H](CC(N)=O)NC(=O)[C@H](C)NC(=O)[C@H](CC(C)C)NC(=O)[C@H](C)NC(=O)[C@H](CO)NC(=O)[C@H](Cc3ccc(O)cc3)NC(=O)[C@H](CC(C)C)NC(=O)[C@@H]3CCC(=O)N3)CSSC[C@H](NC(=O)CNC(=O)[C@H](C(C)C)NC(=O)[C@H](Cc3c[nH]cn3)NC2=O)C(=O)N[C@@H]([C@@H](C)O)C(=O)N[C@@H](CCCCN)C(=O)N[C@@H](CCCNC(=N)N)C(=O)N[C@@H](CO)C(=O)N[C@@H](CC(C)C)C(=O)N[C@@H](C)C(=O)N[C@@H](CCCNC(=N)N)C(=O)N[C@@H](Cc2ccccc2)C(=O)N[C@H](C(=O)O)CSSC[C@@H](C(=O)NCC(=O)N[C@@H](CC[S+](C)[O-])C(=O)N[C@@H](CO)C(=O)N[C@H](C(=O)N[C@@H](Cc2c[nH]c3ccccc23)C(=O)N[C@@H](CO)C(=O)O)[C@@H](C)O)NC1=O` (some centres unmarked) [O-RLX2, Met (O)^25-human relaxin 2] the “peptide remaining after 10 d of incubation in FBS” value (FBS 80% v/v, 37 °C, 10 d, 58 ± 5.0 μg/mL peptide, HPLC, % of initial concentration, triplicate) was “all the free O-RLX2 peptide was degraded” and the half-life (fetal bovine serum (FBS) 80% v/v) was 83.5 h.

— PMC9599704, “Liposomal Entrapment or Chemical Modification of Relaxin2 for Prolongation of Its Stability and Biological Activity” (Biomolecules, 2022)
